Source: patent publication US8067424B2, “Selective inhibitors for cyclin-dependent kinases” (Emory University, priority 2007, dated 2011)
Like-named read-outs stand apart in the source and are kept apart here.

Columns and labels:
CDK2/cyclin A complex = biological target: T1, CDK2/cyclin A complex (Homo sapiens, UniProt P24941); assay: CDK2/cyclin A kinase assay (as for CDK7); format: biochemical; details: for remaining activity at 0.1 µM: 100 nM, mean of three (standard deviation), read-out: CDK2 % remaining kinase activity after incubation with 100 nM of compound; for IC50: Table 7, mean of three experiments, read-out: CDK2 kinase inhibition in vitro (IC50)
T1 construct: purchased Proqinase GmbH, Germany
Method in brief: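 Run as the CDK7 protocol with 50 ng CDK2/cyclin A or 100 ng CDK9/cyclin T; compound 30 min at 30 °C, then 2 μM ATP final for 20 min at 30 °C. ATP depletion by luciferase luminescence (PKLight), triplicate, normalised to no-enzyme and enzyme controls.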

[1] = biological target: T2, CDK7 complex (CDK7, Cyclin H, MAT1) (Homo sapiens, UniProt P50613); assay: CDK7/CycH/MAT1 trimeric complex kinase assay (PKLight luciferase); format: biochemical; details: 100 nM; mean of three (standard deviation); read-out: CDK7 % remaining kinase activity after incubation with 100 nM of compound
T2 construct: purchased Proqinase GmbH, Germany
T2 sequence (P50613 whole entry): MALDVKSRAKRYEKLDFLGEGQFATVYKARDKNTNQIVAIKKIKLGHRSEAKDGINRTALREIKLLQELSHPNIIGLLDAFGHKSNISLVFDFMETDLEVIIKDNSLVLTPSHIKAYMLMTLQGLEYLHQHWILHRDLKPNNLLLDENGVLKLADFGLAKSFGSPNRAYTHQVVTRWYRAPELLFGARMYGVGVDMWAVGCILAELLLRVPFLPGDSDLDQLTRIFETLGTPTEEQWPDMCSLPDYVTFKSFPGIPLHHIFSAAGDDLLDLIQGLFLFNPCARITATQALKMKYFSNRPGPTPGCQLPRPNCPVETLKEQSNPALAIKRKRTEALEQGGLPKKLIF
T2 sequence (P51946 whole entry partner): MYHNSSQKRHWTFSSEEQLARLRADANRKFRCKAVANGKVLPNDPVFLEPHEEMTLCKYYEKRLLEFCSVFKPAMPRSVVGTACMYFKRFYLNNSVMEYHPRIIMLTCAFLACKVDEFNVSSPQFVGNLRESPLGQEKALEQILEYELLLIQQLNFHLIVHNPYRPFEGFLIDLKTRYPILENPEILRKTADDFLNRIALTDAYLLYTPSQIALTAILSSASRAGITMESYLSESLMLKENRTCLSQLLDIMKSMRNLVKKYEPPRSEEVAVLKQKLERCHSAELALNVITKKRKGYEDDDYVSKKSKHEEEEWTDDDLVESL
T2 sequence (P51948 whole entry partner): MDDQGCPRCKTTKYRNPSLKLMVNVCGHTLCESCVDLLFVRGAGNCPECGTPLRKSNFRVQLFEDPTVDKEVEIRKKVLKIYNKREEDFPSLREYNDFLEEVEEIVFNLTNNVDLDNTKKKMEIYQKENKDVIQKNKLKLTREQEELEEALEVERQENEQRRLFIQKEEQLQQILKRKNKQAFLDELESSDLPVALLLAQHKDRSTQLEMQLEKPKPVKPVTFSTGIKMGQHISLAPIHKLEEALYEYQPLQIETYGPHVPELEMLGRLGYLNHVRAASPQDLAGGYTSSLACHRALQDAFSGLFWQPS
Method in brief: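 Compound was preincubated with the kinase for 30 min at 30 °C; the reaction then ran for 20 min at 30 °C with 2 μM ATP final. Remaining ATP was measured by PKLight luciferase luminescence at 560 nm. Values were corrected against the no-enzyme control and expressed relative to enzyme-only activity (100%), in triplicate.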

MALME-3M = assay: cells; details: Homo sapiens
SN12C = details: for Mean Optical Densities / Percent Growth: SN12C
HCT-116 = assay: cells; details: Homo sapiens
SK-OV-3 = assay: cells; details: Homo sapiens
HCT-15 = assay: cells; details: Homo sapiens
SR = details: for Mean Optical Densities / Percent Growth: SR
SF-295 = assay: cells; details: Homo sapiens
SW-620 = assay: cells; details: Homo sapiens
UACC-257 = assay: cells; details: Homo sapiens
A549/ATCC = assay: cells; details: Homo sapiens
[2] = SK-MEL-5, log10 concentration −4.0
[3] = SK-MEL-5, log10 concentration −5.0
[4] = SK-MEL-5, log10 concentration −6.0
[5] = SK-MEL-5, log10 concentration −7.0
[6] = SK-MEL-5, log10 concentration −8.0
[7] = UO-31, log10 concentration −4.0
[8] = UO-31, log10 concentration −5.0
[9] = UO-31, log10 concentration −6.0
[10] = UO-31, log10 concentration −7.0
[11] = UO-31, log10 concentration −8.0

SMILES: CC[C@H](CO)Nc1cc(NCc2ccccc2)n2ncc(C(C)C)c2n1 [ICEC0067]
- remaining activity at 0.1 µM (CDK2/cyclin A complex): 100%
- IC50 (CDK2/cyclin A complex): > 1000 nM
- remaining activity at 0.1 µM [1]: 49%

SMILES: C=C[C@H](CO)Nc1cc(NCc2ccccc2)n2ncc(C(C)C)c2n1 [ICEC0065]
- remaining activity at 0.1 µM (CDK2/cyclin A complex): 95%
- IC50 (CDK2/cyclin A complex): > 1000 nM
- remaining activity at 0.1 µM [1]: 80%

SMILES: CC(C)c1cnn2c(NCc3ccccc3)cc(N[C@@H](CO)[C@H](O)CO)nc12 [ICEC0318, (3S)-3-(7-(Benzylamino)-3-isopropylpyrazolo[1,5-a]pyrimidin-5-ylamino)butane-1,2,4-triol]
- GI50 (MALME-3M): 404 nM
- CC50 (MALME-3M; read-out: LC50): > 100000 nM
- TGI (SN12C; SN12C (Renal Cancer)): >1.00E−4
- Mean Optical Densities (SN12C; log10 concentration −4.0): 0.531
- Percent Growth (SN12C; log10 concentration −4.0): 11%
- Mean Optical Densities (SN12C; log10 concentration −5.0): 0.578
- Percent Growth (SN12C; log10 concentration −5.0): 14%
- Mean Optical Densities (SN12C; log10 concentration −6.0): 0.620
- Percent Growth (SN12C; log10 concentration −6.0): 18%
- Mean Optical Densities (SN12C; log10 concentration −7.0): 1.515
- Percent Growth (SN12C; log10 concentration −7.0): 84%
- Mean Optical Densities (SN12C; log10 concentration −8.0): 1.702
- Percent Growth (SN12C; log10 concentration −8.0): 98%
- GI50 (HCT-116; HCT-116): 161 nM
- CC50 (HCT-116; HCT-116, read-out: LC50): > 100000 nM
- TGI (U251; U251 (CNS Cancer)): >1.00E−4
- Mean Optical Densities (U251; U251, log10 concentration −4.0): 0.262
- Percent Growth (U251; U251, log10 concentration −4.0): 2%
- Mean Optical Densities (U251; U251, log10 concentration −5.0): 0.289
- Percent Growth (U251; U251, log10 concentration −5.0): 5%
- Mean Optical Densities (U251; U251, log10 concentration −6.0): 0.299
- Percent Growth (U251; U251, log10 concentration −6.0): 6%
- Mean Optical Densities (U251; U251, log10 concentration −7.0): 0.999
- Percent Growth (U251; U251, log10 concentration −7.0): 81%
- Mean Optical Densities (U251; U251, log10 concentration −8.0): 1.168
- Percent Growth (U251; U251, log10 concentration −8.0): 99%
- GI50 (SK-OV-3; SK-OV-3): 565 nM
- CC50 (SK-OV-3; SK-OV-3, read-out: LC50): > 100000 nM
- GI50 (HCT-15; HCT-15): 377 nM
- CC50 (HCT-15; HCT-15, read-out: LC50): > 100000 nM
- TGI (SK-MEL-5; SK-MEL-5 (Melanoma)): 5.33E−7
- Mean Optical Densities (SK-MEL-5; [2]): 0.260
- Percent Growth (SK-MEL-5; [2]): −58%
- Mean Optical Densities (SK-MEL-5; [3]): 0.275
- Percent Growth (SK-MEL-5; [3]): −56%
- Mean Optical Densities (SK-MEL-5; [4]): 0.427
- Percent Growth (SK-MEL-5; [4]): −31%
- Mean Optical Densities (SK-MEL-5; [5]): 2.036
- Percent Growth (SK-MEL-5; [5]): 82%
- Mean Optical Densities (SK-MEL-5; [6]): 2.375
- Percent Growth (SK-MEL-5; [6]): 102%
- TGI (SR; SR (Leukemia)): >1.00E−4
- Mean Optical Densities (SR; log10 concentration −4.0): 0.239
- Percent Growth (SR; log10 concentration −4.0): 7%
- Mean Optical Densities (SR; log10 concentration −5.0): 0.244
- Percent Growth (SR; log10 concentration −5.0): 8%
- Mean Optical Densities (SR; log10 concentration −6.0): 0.275
- Percent Growth (SR; log10 concentration −6.0): 16%
- Mean Optical Densities (SR; log10 concentration −7.0): 0.394
- Percent Growth (SR; log10 concentration −7.0): 45%
- Mean Optical Densities (SR; log10 concentration −8.0): 0.548
- Percent Growth (SR; log10 concentration −8.0): 83%
- GI50 (SF-295; SF-295): 266 nM
- CC50 (SF-295; SF-295, read-out: LC50): > 100000 nM
- GI50 (SW-620; SW-620): 285 nM
- CC50 (SW-620; SW-620, read-out: LC50): > 100000 nM
- GI50 (UACC-257; UACC-257): 344 nM
- CC50 (UACC-257; UACC-257, read-out: LC50): > 100000 nM
- TGI (UO-31; UO-31 (Renal Cancer)): 2.07E−5
- Mean Optical Densities (UO-31; [7]): 0.522
- Percent Growth (UO-31; [7]): −4%
- Mean Optical Densities (UO-31; [8]): 0.557
- Percent Growth (UO-31; [8]): 2%
- Mean Optical Densities (UO-31; [9]): 0.578
- Percent Growth (UO-31; [9]): 4%
- Mean Optical Densities (UO-31; [10]): 1.371
- Percent Growth (UO-31; [10]): 89%
- Mean Optical Densities (UO-31; [11]): 1.378
- Percent Growth (UO-31; [11]): 90%
- GI50 (A549/ATCC; A549): 338 nM
- CC50 (A549/ATCC; A549, read-out: LC50): > 100000 nM
